What was measured:
[1] = Ammonia concentration in treated poultry houses during grow out; conditions: houses and bedding sprayed with 200 ppm aqueous solution before placement of birds; two houses of 26,000 birds; wood chip bedding; 57 day grow out
Protocol: Two poultry houses containing 26,000 birds each were treated, by spraying the houses and bedding contained therein, with an aqueous solution of a product sold under the trademark PLT, at a concentration of 200 ppm. Treatment was effected prior to placement of the birds in the poultry houses. The bedding utilized was popular wood chips. After 57 days the grow out was complete. During the grow out periods the concentration of ammonia in the poultry houses varied between 30 and 70 ppm. […] Two poultry houses containing 26,000 birds each were treated by spraying the houses and bedding contained therein with an aqueous solution of TCM, at a concentration of 200 ppm. Treatment was effected prior to placement of the birds in the poultry houses. The bedding utilized was popular wood chips. After 57 days the grow out was complete. During the grow out the concentration of ammonia in the poultry houses never exceeded 20 ppm.

[2] = system: salmonella; test: Monitoring for salmonella in treated poultry houses during grow out; conditions: houses and bedding sprayed with 200 ppm aqueous solution before placement of birds; two houses of 25,000 birds; wood chip bedding; 56 day grow out
Protocol: Two poultry houses containing 25,000 birds each were treated by spraying the houses and bedding contained therein with an aqueous solution of TCM, at a concentration of 200 ppm. Treatment was effected prior to placement of the birds in the poultry house. The bedding utilized was popular wood chips. After 56 days the grow out was complete. During the grow out the presence of salmonella was monitored.
An untreated poultry house containing 25,000 birds was monitored during a 56 day grow out for the presence of salmonella. The bedding utilized was popular wood chips. After 56 days the grow out was complete. During the grow out the poultry house tested positive for salmonella.

Substance: trichloromelamine [TCM]
- concentration of ammonia in the poultry houses [1]: ≤ 20 ppm
- presence of salmonella during the grow out [2]: no salmonella was detected

From US20110152269A1, “PROCESS FOR TREATING ANIMAL HABITATS” (H&S Chemical Company, Inc., priority 2001, published 2011)
